{
  "source": "patent US20100056493A1",
  "about": "“MODIFIED RELEASE PHARMACEUTICAL COMPOSITION AND A PROCESS OF MAKING THE SAME” (priority 2007, published 2010)",
  "origin": "cited, not measured here",
  "key": {"[1]": {"tested_on": "de novo kidney allograft recipients", "details": "P=NS"}, "[2]": {"details": "given in brackets after the drug name; no method stated"}, "[3]": {"details": "720 mg mycophenolic acid as mycophenolate sodium twice daily or 1000 mg MMF twice daily"}},
  "data": [
    {"smiles": "COc1c(C)c2c(c(O)c1C/C=C(\\C)CCC(=O)OCCN1CCOCC1)C(=O)OC2", "note": "[MMF, mycophenolate mofetil]", "values": [
      {"measurement": "frequency of dosage reductions, discontinuation, or temporary interruptions of therapy secondary to GI toxicities", "setting": "[1]; [3]", "result": 17.6, "unit": "%"},
      {"measurement": "incidence of GI adverse events", "setting": "[1]; [3]", "result": 78.1, "unit": "%"},
      {"measurement": "overall incidence of efficacy failure (biopsy-proven acute rejection, graft loss, death, or loss to follow-up)", "setting": "[1]; at 6 months, 720 mg mycophenolic acid as mycophenolate sodium twice daily (n=213) or 1000 mg MMF twice daily (n=210)", "result": 28.1, "unit": "%"},
      {"measurement": "BPAR rates", "setting": "[1]; at 12 months, 720 mg mycophenolic acid as mycophenolate sodium twice daily or 1000 mg MMF twice daily", "result": 24.3, "unit": "%"},
      {"measurement": "pH", "setting": "[2]", "result": 7.2}
    ]},
    {"smiles": "O=C(O)/C=C/C(=O)O.OCCOCCN1CCN(C2=Nc3ccccc3Sc3ccccc32)CC1", "note": "[Quetiapine fumarate, 2-[2-(4-dibenzo[b,f][1,4]thiazepin-11-yl-1-piperazinyl)ethoxy]-ethanol fumarate]", "values": [
      {"measurement": "pH", "setting": "[2]", "result": 5.4}
    ]},
    {"smiles": "COc1c(C)c2c(c(O)c1C/C=C(\\C)CCC(=O)O)C(=O)OC2", "note": "[mycophenolate sodium]", "values": [
      {"measurement": "frequency of dosage reductions, discontinuation, or temporary interruptions of therapy secondary to GI toxicities", "setting": "[1]; [3]", "result": 13.1, "unit": "%"},
      {"measurement": "incidence of GI adverse events", "setting": "[1]; [3]", "result": 78.4, "unit": "%"}
    ]}
  ]
}
